Broadly, the EC50 is the concentration giving half of the maximal effect. The low end stands for an effect from little substance, the high end for a need for much substance.

In the assay the target is T1, K2P2.1(TREK-1)GGG (Mus musculus, UniProt P97438, D309G/I307G).
T1 construct: expressed in transfected cells; host or cells: Xenopus laevis oocytes, mRNA injected
Description: TEVC of triple-glycine mutant uncoupling the C-terminal tail. Format: cell-based. The settings on record: Xenopus oocytes. The text has this: Gating stimuli detected by sensors in various parts of the channel converge on the K2P selectivity filter C-type gate.[6],[8],[10],[12],[35] Because the C-terminal tail is the sensor for K2P2.1(TREK-1) activation by both physiological[41]−[46] and chemical[45],[47] activators, we asked whether uncoupling the C-terminal tail from the channel using a triple-glycine mutant at the M4/C-terminal tail junction, K2P2.1(TREK-1)GGG,[41] impacted the BL-1249 response. […]
Xenopus laevis oocytes were harvested in accordance with UCSF IACUC protocol AN129690 and digested in calcium-free ND-96 (96 mM NaCl, 2 mM KCl, 3.8 mM MgCl2) immediately following harvest, as previously described.[6],[10] […] Defolliculated stage V–VI oocytes were injected with 0.2–6.0 ng of mRNA in 50 nL, and currents were recorded 24–48 h after injection. mRNA was synthesized from plasmid DNA using mMessage mMachine Kit (T7 promoter, Ambion, Life Technologies) and purified using RNEasy Kit (Qiagen). […] Once stabilized basal currents were recorded, compounds were perfused at various concentrations in standard ND96 and currents were allowed to increase to stabilization before recording final current. Fold activation upon compound application is expressed as I/I0 (0 mV), derived from the current at 0 mV in the presence of compound divided by the basal current at 0 mV in standard ND96 without compound. […]

T1 sequence (P97438 1-411 isoform P97438-2 I292G/D294G): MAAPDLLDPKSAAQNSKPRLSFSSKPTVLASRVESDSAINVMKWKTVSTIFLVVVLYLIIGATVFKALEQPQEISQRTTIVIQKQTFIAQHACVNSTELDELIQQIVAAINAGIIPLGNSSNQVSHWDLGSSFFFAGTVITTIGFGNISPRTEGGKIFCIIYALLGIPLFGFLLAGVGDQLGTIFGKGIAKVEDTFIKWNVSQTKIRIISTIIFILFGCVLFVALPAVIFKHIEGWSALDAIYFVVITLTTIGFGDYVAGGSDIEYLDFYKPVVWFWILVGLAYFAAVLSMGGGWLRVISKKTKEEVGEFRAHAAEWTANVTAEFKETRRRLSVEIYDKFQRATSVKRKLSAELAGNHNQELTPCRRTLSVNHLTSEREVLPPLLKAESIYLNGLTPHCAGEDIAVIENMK

In turn, `c1ccc(-c2nnn[nH]2)c(Nc2cccc3c2CCCC3)c1` [BL-1249, (5,6,7,8-tetrahydro-naphthalen-1-yl)-[2-(1H-tetrazol-5-yl)-phenyl]-amine] had an EC50 of 19 ± 1 µM.

The values above are taken from PMC6302903, “Protein and Chemical Determinants of BL-1249 Action and Selectivity for K2P Channels” (ACS Chemical Neuroscience, 2018).
